Results as given in the supplement of paper PMC10307832.

Assays:
Experiment in all cases: relative viability (nuclei count vs DMSO), 5 days (fraction); higher = more cells survive
[1] = compound: C1=CC=C(C(=C1)C2=CC=C(C=C2)C3=CSC4=C3C(=C(C(=O)N4)C#N)O)O + C[C@]1(O)C[C@@H](c2nc(-c3ccc4ccc(-c5ccccc5)nc4c3)c3c(N)nccn32)C1 [Linsitinib] (partner 1 µM)
How it was run: (§1)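 Values are medians from duplicate plates. Each reflects relative viability, defined as the nuclei count of treated wells over that of vehicle wells. Lung cancer cell lines in 1536-well plates were pin-tool dosed one day after seeding with one drug alone or with a fixed anchor-drug dose plus five library-drug doses (not always all listed) in √10 steps, then fixed, stained and imaged at 4× after 5 days.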

TGX 221 + Navitoclax = compound: CC1=CN2C(=O)C=C(N=C2C(=C1)C(C)NC3=CC=CC=C3)N4CCOCC4 [TGX 221] + CC1(C)CCC(c2ccc(Cl)cc2)=C(CN2CCN(c3ccc(C(=O)NS(=O)(=O)c4ccc(N[C@H](CCN5CCOCC5)CSc5ccccc5)c(S(=O)(=O)C(F)(F)F)c4)cc3)CC2)C1 [Navitoclax] (partner 0.5 µM)
How it was run: as §1

Ricolinostat + Foretinib = compound: O=C(CCCCCCNC(=O)c1cnc(N(c2ccccc2)c2ccccc2)nc1)NO [Ricolinostat] + COc1cc2c(Oc3ccc(NC(=O)C4(C(=O)Nc5ccc(F)cc5)CC4)cc3F)ccnc2cc1OCCCN1CCOCC1 [Foretinib] (partner 0.25 µM)
How it was run: as §1

Ricolinostat + Alpelisib = compound: O=C(CCCCCCNC(=O)c1cnc(N(c2ccccc2)c2ccccc2)nc1)NO [Ricolinostat] + Cc1nc(NC(=O)N2CCC[C@H]2C(N)=O)sc1-c1ccnc(C(C)(C)C(F)(F)F)c1 [Alpelisib] (partner 2 µM)
How it was run: as §1

Row | Cell Line | relative viability ([1]; first compound 0.08 µM) | relative viability ([1]; first compound 0.253 µM) | relative viability ([1]; first compound 0.8 µM) | relative viability ([1]; first compound 2.53 µM) | relative viability ([1]; first compound 8 µM) | relative viability (TGX 221 + Navitoclax; first compound 0.08 µM) | relative viability (TGX 221 + Navitoclax; first compound 0.253 µM) | relative viability (TGX 221 + Navitoclax; first compound 0.8 µM) | relative viability (TGX 221 + Navitoclax; first compound 2.53 µM) | relative viability (TGX 221 + Navitoclax; first compound 8 µM) | relative viability (Ricolinostat + Foretinib; first compound 0.08 µM) | relative viability (Ricolinostat + Foretinib; first compound 0.253 µM) | relative viability (Ricolinostat + Foretinib; first compound 0.8 µM) | relative viability (Ricolinostat + Foretinib; first compound 2.53 µM) | relative viability (Ricolinostat + Alpelisib; first compound 0.08 µM) | relative viability (Ricolinostat + Alpelisib; first compound 0.253 µM) | relative viability (Ricolinostat + Alpelisib; first compound 0.8 µM) | relative viability (Ricolinostat + Alpelisib; first compound 2.53 µM)
1 | EBC-1 | 0.784 | 1.16 | 0.642 | 0.925 | 0.781 | 0.43 | 0.408 | 0.428 | 0.277 | 0.258 | 0.0899 | 0.101 | 0.0995 | 0.0994 | 0.57 | 0.737 | 0.699 | 0.414
2 | EPLC-272H | – | 1.46 | 1.23 | 1.24 | 0.888 | 1.1 | 1.17 | 1.19 | – | 1.29 | 0.632 | 0.704 | 0.442 | 0.354 | – | 0.891 | 1.04 | 0.7
3 | NCI-H2126 | 0.71 | 0.721 | 0.699 | 0.678 | 0.704 | 0.831 | 0.835 | 0.837 | 0.752 | 0.817 | 0.864 | 1.23 | 1.16 | 1 | 0.578 | 0.707 | 0.716 | 0.628
4 | NCI-H1666 | 0.753 | 0.817 | 0.873 | 1 | 0.653 | 0.935 | 0.759 | 0.749 | 0.844 | 0.927 | 0.967 | 1.01 | 1.02 | 0.914 | 0.938 | 0.895 | 0.997 | 0.463
5 | RERF-LC-KJ | 0.93 | 1.03 | 0.877 | 0.911 | 0.831 | – | 0.78 | 0.913 | 0.8 | 1.14 | 0.842 | 0.795 | 0.88 | 0.802 | 0.668 | 0.972 | 0.754 | 0.766
6 | A549 | 0.635 | 0.606 | 0.509 | 0.521 | 0.393 | 1.29 | 1.17 | 1.18 | 1.18 | 1.11 | 0.859 | 0.99 | 0.928 | 0.917 | 0.537 | 0.805 | 0.663 | 0.631
7 | IA-LM | 0.479 | 1.9 | 0.198 | 0.855 | 0.376 | 0.722 | 0.707 | 1.02 | 0.849 | 1.02 | 0.959 | 1.01 | 1.09 | 0.932 | 0.616 | 0.819 | 0.623 | 0.363
